Measured values from patent US20250312327A1, “COMPOSITION FOR COMBINATION THERAPY, COMPRISING 2,3,5-SUBSTITUTED THIOPHENE COMPOUND” (PHAROS IBIO CO., LTD, priority 2021, published 2025).
Like-named read-outs stand apart in the source and are kept apart here.

Legend:
Format in all cases: cell-based
[1] = test system: THP-1 leukemia cell line; test: CellTiter-Glo assay, drug administered alone; details: Homo sapiens, THP-1, PHI-101 administered alone
[2] = test system: U937 leukemia cell line; test: CellTiter-Glo assay, drug administered alone; details: Homo sapiens, U-937, PHI-101 administered alone
[3] = test system: HL-60 leukemia cell line; test: CellTiter-Glo assay, drug administered alone; details: Homo sapiens, HL-60, PHI-101 administered alone
[4] = test system: BDCM leukemia cell line; test: CellTiter-Glo assay, drug administered alone; details: PHI-101 administered alone
[5] = test system: HL-60 leukemia cell line; test: CellTiter-Glo assay, co-administration of PHI-101 and anticancer drug; details: PHI-101 at the minimum concentration, 5-azacytidine co-administration test
Procedure: (§1) Specifically, in the first and second tests, a 10-fold diluted solution was prepared by dissolving […] of solvent. 500 μL of the solution was serially diluted ½, an 8E-tube was filled with 500 μL of each dilution, and 90 μL of each cell line was dispensed into each well of a 96-well plate. Thereafter, 10 μL of each cell line was dispensed using JANUS and pretreated for 30 minutes under CO2. […] Next, the cells were incubated for 72 hours under CO2, Celltiter-Glo assay was performed and then IC50 was calculated.
(§2) In the third and fourth tests, a 10-fold diluted solution was prepared by dissolving 5 μL of 50 mM PHI-101 in 495 μL of solvent. 250 μL of the solution was serially diluted ½, an 8E-tube was filled with 250 μL of each dilution, and 60 μL of each cell line was dispensed into each well of a 96-well plate. Thereafter, 10 μL of each cell line was dispensed using JANUS and pretreated for 30 minutes under CO2. […] Next, the cells were incubated for 72 hours under CO2, Celltiter-Glo assay was performed and then IC50 was calculated.
(§3) Specifically, in the first and second tests, for BDCM, HL-60, THP-1, and U937 cell lines, a 10-fold diluted solution was prepared by dissolving 5 μL of 50 mM PHI-101 in 495 μL of solvent. […] Next, the cells were incubated for 72 hours under CO2, Celltiter-Glo assay was performed and then IC50 was calculated.

[6] = test system: U937 leukemia cell line; test: as above; details: PHI-101 at the minimum concentration, 5-azacytidine co-administration test
Procedure: as §1, §2, §3

[7] = test system: MV4-11 leukemia cell line; test: CellTiter-Glo assay, drug administered alone; details: Homo sapiens, PHI-101 administered alone, Table 7
[8] = test system: MolM14 leukemia cell line; test: CellTiter-Glo assay, drug administered alone; details: Homo sapiens, MOLM-14, PHI-101 administered alone
[9] = test system: MolM13 leukemia cell line; test: CellTiter-Glo assay, drug administered alone; details: Homo sapiens; PHI-101 administered alone; MolM 13; Table 7; read-out: IC50 PHI-101
Procedure: The first and second tests were performed in triplicate on the above cell lines while reducing the concentration of venetoclax by half each time from 100 μM, and the third test was performed in triplicate on the BDCM cell line while reducing the concentration of venetoclax by half each time from 100 μM, and performed in triplicate on HL-60, MolM13, MolM14, and MV4-11 cell lines while reducing the concentration of venetoclax by half each time from 2.5 μM. The fourth test was performed in triplicate on HL-60, MolM13, MolM14, and MV4-11 cell lines while reducing the concentration by half each time from 2.5 μM.
Specifically, in the first and second tests, a 10-fold diluted solution was prepared by dissolving 50 μL of 10 mM venetoclax in 450 μL of solvent. 250 μL of the solution was serially diluted ½, an 8E-tube was filled with 250 μL of each dilution, and 80 μL of each cell line was dispensed into each well of a 96-well plate. Thereafter, 10 μL of each cell line was dispensed using JANUS and incubated for 72 hours under CO2. Celltiter-Glo assay was performed and then IC50 was calculated.
In the third test, for the BCDM cell line, a 10-fold diluted solution was prepared by dissolving 15 μL of 10 mM venetoclax in 135 μL of solvent. 100 μL of the solution was serially diluted ½, an 8E-tube was filled with 100 μL of each dilution, and the cell line was dispensed into a 96-well plate. Thereafter, 25 μL of the cell line was dispensed using JANUS and incubated for 72 hours under CO2. Celltiter-Glo assay was performed and then IC50 was calculated. Meanwhile, for the HL-60, MolM13, MolM14, and MV4-11 cell lines, a 10-fold diluted solution was prepared by dissolving […] of solvent. 200 μL of the solution was serially diluted ½, an 8E-tube was filled with 200 μL of each dilution, and each of the cell lines was dispensed into a 96-well plate. Thereafter, 60 μL of each cell line was dispensed using JANUS and incubated for 72 hours under CO2. Celltiter-Glo assay was performed and then IC50 was calculated.
The fourth test was performed on HL-60, MolM13, MolM14, and MV4-11 cell lines in the same manner as the third test.
(§4) The first and second tests were performed in triplicate on the above cell lines while reducing the concentration of 5-azacytidine by half each time from 100 μM. Specifically, in the first and second tests, a 10-fold diluted solution was prepared by dissolving 15 μL of 20 mM 5-azacytidine in 285 μL of solvent. 250 μL of the solution was serially diluted ½, an 8E-tube was filled with 250 μL of each dilution, and 80 μL of each cell line (3,000 cells) was dispensed into each well of a 96-well plate. Thereafter, 10 μL of each cell line was dispensed using JANUS and incubated for 72 hours under CO2. Celltiter-Glo assay was performed and then IC50 was calculated.
as §4, with “cytarabine” for “5-azacytidine”, “50,000” for “100”, “10” for “15”, “50” for “20”, “490” for “285”

[10] = Table 7, read-out: IC50 PHI-101
[11] = Table 10, read-out: IC50 PHI-101
[12] = Table 13, read-out: IC50 PHI-101

Question: `NC(=O)Nc1cc(C#Cc2cccc(F)c2)sc1C(=O)N[C@H]1CCCNC1` [PHI-101, (S)-5-((3-fluorophenyl)ethynyl)-N-(piperidin-3-yl)-3-ureido-thiophene-2-carboxamide] was tested. Which IC50 [1, 10] did it give?
Answer: 1530 nM

Question: What about the IC50 [1, 11] of the same molecule?
Answer: 735 nM

Question: And the IC50 [1, 12]?
Answer: 735 nM

Question: What about the IC50 [2, 10] of the same molecule?
Answer: 1250 nM

Question: What about the IC50 [2, 11] of the same molecule?
Answer: 3400 nM

Question: And the IC50 [2, 12]?
Answer: 850 nM

Question: And the IC50 [3, 10]?
Answer: 2080 nM

Question: What about the IC50 [3, 11] of the same molecule?
Answer: 2200 nM

Question: And the IC50 [3, 12]?
Answer: 1100 nM

Question: And the IC50 [4, 10]?
Answer: 950 nM

Question: What about the IC50 [4, 11] of the same molecule?
Answer: 230 nM

Question: And the IC50 [4, 12]?
Answer: 230 nM

Question: What about the inhibitory activity [5] of the same molecule?
Answer: ≤ 50%

Question: And the inhibitory activity [6]?
Answer: ≤ 50%

Question: And the IC50 [7]?
Answer: 1 nM

Question: And the IC50 ([8]; Table 7)?
Answer: 8 nM

Question: What about the IC50 ([8]; Table 10) of the same molecule?
Answer: 8 nM

Question: What about the IC50 ([8]; Table 13) of the same molecule?
Answer: 4 nM

Question: What about the IC50 [9] of the same molecule?
Answer: 1 nM
